In this assay the target is T1, human 11β-HSD2 (Homo sapiens, UniProt P80365).
T1 construct: CHO cells stably transfected with the full-length gene coding for human 11β-HSD2 were used; expressed in transfected cells; host or cells: CHO
T1 sequence (P80365 1-405): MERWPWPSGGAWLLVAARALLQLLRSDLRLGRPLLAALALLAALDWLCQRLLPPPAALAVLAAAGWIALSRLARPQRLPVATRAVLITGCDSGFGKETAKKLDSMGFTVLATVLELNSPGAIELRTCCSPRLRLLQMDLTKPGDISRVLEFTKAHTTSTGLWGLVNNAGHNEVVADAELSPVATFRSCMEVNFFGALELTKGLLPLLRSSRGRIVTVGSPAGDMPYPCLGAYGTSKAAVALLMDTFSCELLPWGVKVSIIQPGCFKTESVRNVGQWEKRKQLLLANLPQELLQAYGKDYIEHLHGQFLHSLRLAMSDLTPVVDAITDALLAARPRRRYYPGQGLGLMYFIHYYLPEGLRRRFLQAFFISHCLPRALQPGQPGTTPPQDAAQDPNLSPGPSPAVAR
The experiment in a line: Cellular in vitro 11β-HSD2 enzyme inhibition assay (CHO cells, TLC/phosphoimager). It counts as cell-based. Particulars: CHO cells stably transfected with human 11β-HSD2; Table 1. On the procedure: Cellular In Vitro 11β-HSD2 Enzyme Inhibition Assay
For measurement of inhibition of 11β-HSD2, CHO cells stably transfected with the full-length gene coding for human 11β-HSD2 were used. Assays were carried out in 96-well microplates containing 1×10^5 cells/well. Controls and compounds were plated as above, so that the final DMSO concentration in each well was 1%.
The assay solutions were transferred to glass tubes and 20 μL ethyl acetate added to each tube. Each tube was vortexed thoroughly and the upper layer containing the tritiated steroid transferred to a fresh glass tube. The solvent was evaporated by placing the tubes in a heating block at 65° C. under a stream of Nitrogen gas. 20 μL ethanol was added to each of the dried samples and vortexed briefly. Each sample was applied to a silica TLC plate and the plate dried. The plate was placed vertically in a glass tank containing 92% chloroform:8% ethanol and the solvent allowed to rise up the plate. The plate was dried, placed in an imaging cassette, and overlayed with a tritium imaging plate for 1-2 days. The amount of enzyme inhibition in each sample was determined by measuring the intensity of the substrate and product spots using a phosphoimager.
IC50 values for inhibitors were determined as described for 118-HSD1.

For 5 compounds, IC50 results are on record in US8614209B2, “Amido-thiophene compounds and their use” (The University of Edinburgh, priority 2008, dated 2013).

Some results are limits rather than exact numbers.

On to `CC1(C)CC2CC(C)(CN2C(=O)c2csc(-c3ccncc3)c2)C1` (centres unmarked) [GG-01], for which the IC50 (usually the point on the concentration scale where inhibition reaches its midpoint) was greater than 10 µM. Consider `O=C(c1csc(-n2ccnc2)c1)N1CCCC2CCCCC21` (centres unmarked) [FF-06, (5-Imidazol-1-yl-thiophen-3-yl)-(octahydro-quinolin-1-yl)-methanone], for which the IC50 was greater than 10 µM. The compound `CC1(C)CC2CC(C)(CN2C(=O)c2cc(-c3ccccc3)sc2Cl)C1` (centres unmarked) [CC-02] displayed an IC50 greater than 10 µM. Consider `O=C(c1cc(-c2ccccn2)sc1Cl)N1CCCCCC1` [EE-12], for which the IC50 was greater than 10 µM. In turn, `O=C(c1cc(-c2ccccc2)sc1Cl)N1CCCCC1` [AA-30] returned an IC50 greater than 10 µM.
